Assay results: patent publication US10758633B2, “Nanoparticles for magnetic resonance imaging applications” (Massachusetts Institute of Technology, priority 2014, dated 2020)

Assay: MRI contrast enhancement in blood over time, 1.5 T clinical MRI, mice brain slice
Type: in vivo
Conditions: intravenous injection, T1-weighted
Description: The MRI contrast enhancement of Magnevist® (the most commonly used gadolinium-based contrast agents, GBCAs) and ES-SPIONs in blood were compared over time. According to approved animal protocols, mice were scanned in a 1.5 T clinical MRI machine. After intravenous injection of Magnevist or ES-SPIONs, the T1-weighted images of a single slice in mice brain were taken using clinical MRI sequences (˜3.5 mins time length), and then the half-life of contrast enhancements of both agents were compared side-by-side. […] Left and right images show corresponding side views of the image in the middle. It can be seen in FIG. 6 that a three dimensional profile highlighting the blood vessels in brain was generated.

CNC[C@H](O)[C@@H](O)[C@H](O)[C@H](O)CO.CNC[C@H](O)[C@@H](O)[C@H](O)[C@H](O)CO.O=C([O-])CN(CCN(CC(=O)[O-])CC(=O)O)CCN(CC(=O)[O-])CC(=O)O.[Gd+3] [Magnevist]
half-life of contrast enhancement: ~2 min
